The structures appear in SMILES notation.

Assay [1] deals with T1, Phosphatidylinositol 3-kinase C2 domain-containing subunit gamma (Homo sapiens) (UniProt O75747).
T1 sequence (whole entry): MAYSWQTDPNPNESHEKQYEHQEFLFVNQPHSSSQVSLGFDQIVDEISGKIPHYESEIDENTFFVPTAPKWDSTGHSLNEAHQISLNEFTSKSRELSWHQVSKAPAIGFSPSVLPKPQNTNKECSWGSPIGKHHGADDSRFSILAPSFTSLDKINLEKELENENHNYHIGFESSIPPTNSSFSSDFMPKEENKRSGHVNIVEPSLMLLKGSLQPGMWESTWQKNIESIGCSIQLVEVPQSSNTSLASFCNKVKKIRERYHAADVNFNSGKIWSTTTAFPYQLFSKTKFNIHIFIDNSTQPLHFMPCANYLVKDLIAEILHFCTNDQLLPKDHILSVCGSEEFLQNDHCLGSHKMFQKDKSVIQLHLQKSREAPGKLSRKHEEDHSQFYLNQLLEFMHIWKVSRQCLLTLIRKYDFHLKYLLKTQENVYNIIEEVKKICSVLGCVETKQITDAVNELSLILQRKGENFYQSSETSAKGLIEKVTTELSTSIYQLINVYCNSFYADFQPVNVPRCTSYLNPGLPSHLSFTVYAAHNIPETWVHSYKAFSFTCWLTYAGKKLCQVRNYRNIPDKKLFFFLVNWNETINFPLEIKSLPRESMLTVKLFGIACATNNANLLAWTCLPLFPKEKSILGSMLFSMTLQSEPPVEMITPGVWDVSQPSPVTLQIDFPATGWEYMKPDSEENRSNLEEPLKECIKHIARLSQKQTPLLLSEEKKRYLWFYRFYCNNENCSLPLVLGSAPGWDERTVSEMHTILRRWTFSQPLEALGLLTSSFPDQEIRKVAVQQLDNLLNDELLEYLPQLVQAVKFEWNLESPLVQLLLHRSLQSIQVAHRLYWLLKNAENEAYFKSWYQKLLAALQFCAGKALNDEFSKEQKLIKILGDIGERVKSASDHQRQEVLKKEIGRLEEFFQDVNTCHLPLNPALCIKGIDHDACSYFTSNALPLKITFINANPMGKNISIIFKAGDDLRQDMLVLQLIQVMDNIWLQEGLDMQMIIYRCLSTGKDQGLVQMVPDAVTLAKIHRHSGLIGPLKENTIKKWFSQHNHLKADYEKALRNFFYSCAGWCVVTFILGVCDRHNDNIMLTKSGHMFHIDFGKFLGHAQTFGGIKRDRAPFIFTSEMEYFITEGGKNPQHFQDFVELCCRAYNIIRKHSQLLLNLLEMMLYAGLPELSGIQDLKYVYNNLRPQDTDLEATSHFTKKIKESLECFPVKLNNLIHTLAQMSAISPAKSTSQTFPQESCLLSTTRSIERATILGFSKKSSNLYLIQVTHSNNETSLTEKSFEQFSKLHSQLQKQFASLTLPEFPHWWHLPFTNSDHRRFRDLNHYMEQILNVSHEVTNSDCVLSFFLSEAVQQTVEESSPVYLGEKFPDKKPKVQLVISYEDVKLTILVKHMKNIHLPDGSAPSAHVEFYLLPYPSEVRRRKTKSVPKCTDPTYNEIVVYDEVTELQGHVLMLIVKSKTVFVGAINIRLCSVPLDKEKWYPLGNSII
The assay can be described thus: Inhibition of human PI3KC2gamma assessed as residual activity at 1 uM relative to control.

Another assay is filed under the species Homo sapiens. Briefly: Inhibition of human PKA assessed as residual activity at 1 uM relative to control.
Assay [2] concerns the target High affinity nerve growth factor receptor (Homo sapiens) (UniProt P04629). Briefly: Inhibition of human TRKA assessed as residual activity at 1 uM relative to control.
The target of assay [3] is Proto-oncogene tyrosine-protein kinase ROS (Homo sapiens) (UniProt P08922). The assay can be described thus: Inhibition of human ROS assessed as residual activity at 1 uM relative to control.
The target of assay [4] is RAF proto-oncogene serine/threonine-protein kinase (Homo sapiens) (UniProt P04049). Briefly: Inhibition of human c-RAF assessed as residual activity at 1 uM relative to control.
The target in assay [5] is Serine/threonine-protein kinase MARK1 (Homo sapiens) (UniProt Q9P0L2). Briefly: Inhibition of human MARK1 assessed as residual activity at 1 uM relative to control.
Assay [6] concerns the target T2, Myotonin-protein kinase (Homo sapiens) (UniProt Q09013).
T2 sequence (whole entry): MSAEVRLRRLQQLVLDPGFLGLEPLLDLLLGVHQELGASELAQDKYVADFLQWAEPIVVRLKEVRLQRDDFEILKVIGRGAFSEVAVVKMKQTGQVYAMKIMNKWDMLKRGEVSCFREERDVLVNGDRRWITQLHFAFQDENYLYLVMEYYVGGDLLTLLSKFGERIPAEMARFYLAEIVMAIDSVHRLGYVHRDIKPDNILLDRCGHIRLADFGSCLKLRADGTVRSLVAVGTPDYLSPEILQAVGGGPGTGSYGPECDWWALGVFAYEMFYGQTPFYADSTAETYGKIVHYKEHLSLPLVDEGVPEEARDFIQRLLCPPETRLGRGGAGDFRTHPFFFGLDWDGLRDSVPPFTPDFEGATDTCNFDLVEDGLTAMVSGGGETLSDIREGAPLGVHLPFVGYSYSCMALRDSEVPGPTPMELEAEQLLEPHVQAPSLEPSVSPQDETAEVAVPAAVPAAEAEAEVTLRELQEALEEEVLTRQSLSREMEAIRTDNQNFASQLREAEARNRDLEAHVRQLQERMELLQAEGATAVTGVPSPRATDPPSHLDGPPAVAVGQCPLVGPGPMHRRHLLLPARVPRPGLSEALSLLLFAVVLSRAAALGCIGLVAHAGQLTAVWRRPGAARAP
Briefly: Inhibition of human DMPK assessed as residual activity at 1 uM relative to control.

For assay [7], the target named is T3, Serine/threonine-protein kinase STK11 (Homo sapiens) (UniProt Q15831).
T3 sequence (whole entry): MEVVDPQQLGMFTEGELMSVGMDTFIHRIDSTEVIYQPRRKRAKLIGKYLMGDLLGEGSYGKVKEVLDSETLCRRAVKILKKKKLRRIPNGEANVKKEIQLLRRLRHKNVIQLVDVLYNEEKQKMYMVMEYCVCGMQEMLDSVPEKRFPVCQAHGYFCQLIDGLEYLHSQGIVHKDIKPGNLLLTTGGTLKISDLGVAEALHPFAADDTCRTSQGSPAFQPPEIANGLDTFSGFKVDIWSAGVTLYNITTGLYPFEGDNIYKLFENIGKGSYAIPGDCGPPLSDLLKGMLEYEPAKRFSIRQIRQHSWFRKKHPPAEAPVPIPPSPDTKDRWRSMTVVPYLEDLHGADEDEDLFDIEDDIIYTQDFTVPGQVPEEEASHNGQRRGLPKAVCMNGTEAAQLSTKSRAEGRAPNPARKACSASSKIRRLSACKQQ
The assay can be described thus: Inhibition of human LKB1 assessed as residual activity at 1 uM relative to control.

Assay [8] addresses Mitogen-activated protein kinase 14 (Homo sapiens) (UniProt Q16539). The assay can be described thus: Inhibition of human SAPK2alpha assessed as residual activity at 1 uM relative to control.

Sequence of Proto-oncogene tyrosine-protein kinase ROS (Homo sapiens) (P08922 whole entry): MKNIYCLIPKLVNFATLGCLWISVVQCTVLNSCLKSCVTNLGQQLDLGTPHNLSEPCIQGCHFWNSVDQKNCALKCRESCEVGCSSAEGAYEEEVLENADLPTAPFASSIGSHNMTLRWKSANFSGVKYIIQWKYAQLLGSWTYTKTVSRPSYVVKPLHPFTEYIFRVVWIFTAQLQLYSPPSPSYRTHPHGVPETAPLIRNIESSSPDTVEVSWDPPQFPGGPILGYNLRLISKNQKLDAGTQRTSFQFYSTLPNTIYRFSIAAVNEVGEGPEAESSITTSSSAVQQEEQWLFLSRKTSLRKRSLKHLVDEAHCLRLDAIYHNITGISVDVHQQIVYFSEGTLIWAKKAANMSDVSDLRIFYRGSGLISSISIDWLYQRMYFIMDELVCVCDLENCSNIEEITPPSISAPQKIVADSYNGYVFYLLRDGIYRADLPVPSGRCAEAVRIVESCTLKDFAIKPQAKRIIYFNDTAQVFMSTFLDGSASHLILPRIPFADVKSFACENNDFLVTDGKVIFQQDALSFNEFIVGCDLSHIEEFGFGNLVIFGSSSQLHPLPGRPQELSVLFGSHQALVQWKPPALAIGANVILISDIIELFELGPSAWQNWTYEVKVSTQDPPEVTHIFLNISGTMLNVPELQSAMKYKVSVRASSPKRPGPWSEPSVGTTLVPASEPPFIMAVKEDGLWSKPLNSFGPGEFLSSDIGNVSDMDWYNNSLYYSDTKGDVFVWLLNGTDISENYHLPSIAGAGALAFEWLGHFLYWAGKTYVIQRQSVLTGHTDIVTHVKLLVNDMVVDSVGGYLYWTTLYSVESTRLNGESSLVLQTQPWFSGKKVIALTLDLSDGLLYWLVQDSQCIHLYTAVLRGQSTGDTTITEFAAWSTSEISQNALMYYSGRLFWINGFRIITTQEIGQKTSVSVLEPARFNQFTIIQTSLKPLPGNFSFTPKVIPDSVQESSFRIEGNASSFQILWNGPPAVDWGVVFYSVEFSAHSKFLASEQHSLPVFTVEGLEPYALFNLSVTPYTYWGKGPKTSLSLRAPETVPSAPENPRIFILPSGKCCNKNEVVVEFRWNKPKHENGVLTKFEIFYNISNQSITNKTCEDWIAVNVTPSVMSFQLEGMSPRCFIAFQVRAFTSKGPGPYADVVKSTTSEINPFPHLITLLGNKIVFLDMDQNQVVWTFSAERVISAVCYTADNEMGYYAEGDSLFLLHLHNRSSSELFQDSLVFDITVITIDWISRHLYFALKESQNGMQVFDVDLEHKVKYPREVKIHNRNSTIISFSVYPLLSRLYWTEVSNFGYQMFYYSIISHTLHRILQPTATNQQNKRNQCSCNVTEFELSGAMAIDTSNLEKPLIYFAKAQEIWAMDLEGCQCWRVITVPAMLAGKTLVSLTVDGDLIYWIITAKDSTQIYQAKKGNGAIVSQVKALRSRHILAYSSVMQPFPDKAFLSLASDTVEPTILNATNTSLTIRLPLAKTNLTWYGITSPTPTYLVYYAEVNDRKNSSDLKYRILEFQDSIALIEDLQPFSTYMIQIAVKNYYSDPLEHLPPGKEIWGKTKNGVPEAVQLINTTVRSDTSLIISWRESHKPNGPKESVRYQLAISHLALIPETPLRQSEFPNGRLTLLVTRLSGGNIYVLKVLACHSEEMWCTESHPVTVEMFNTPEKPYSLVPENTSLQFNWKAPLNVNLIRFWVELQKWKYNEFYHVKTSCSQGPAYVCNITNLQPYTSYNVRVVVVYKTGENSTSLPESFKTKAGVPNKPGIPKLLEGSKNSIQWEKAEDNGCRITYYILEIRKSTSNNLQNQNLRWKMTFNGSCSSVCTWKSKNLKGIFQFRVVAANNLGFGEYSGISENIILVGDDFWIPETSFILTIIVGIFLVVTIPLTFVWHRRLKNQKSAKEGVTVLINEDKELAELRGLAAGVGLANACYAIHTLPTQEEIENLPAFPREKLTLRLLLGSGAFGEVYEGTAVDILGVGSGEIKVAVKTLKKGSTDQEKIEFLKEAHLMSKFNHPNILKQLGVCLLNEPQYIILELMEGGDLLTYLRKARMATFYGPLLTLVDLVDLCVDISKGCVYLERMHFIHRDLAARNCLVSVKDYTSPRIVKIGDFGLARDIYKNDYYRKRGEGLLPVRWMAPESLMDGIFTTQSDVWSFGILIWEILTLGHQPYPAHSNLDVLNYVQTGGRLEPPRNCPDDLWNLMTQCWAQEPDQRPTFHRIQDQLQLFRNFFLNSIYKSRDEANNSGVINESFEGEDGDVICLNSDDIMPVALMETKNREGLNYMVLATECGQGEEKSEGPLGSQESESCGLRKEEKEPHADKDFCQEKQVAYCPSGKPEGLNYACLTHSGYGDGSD
Sequence of Serine/threonine-protein kinase MARK1 (Homo sapiens) (Q9P0L2 whole entry, looked up): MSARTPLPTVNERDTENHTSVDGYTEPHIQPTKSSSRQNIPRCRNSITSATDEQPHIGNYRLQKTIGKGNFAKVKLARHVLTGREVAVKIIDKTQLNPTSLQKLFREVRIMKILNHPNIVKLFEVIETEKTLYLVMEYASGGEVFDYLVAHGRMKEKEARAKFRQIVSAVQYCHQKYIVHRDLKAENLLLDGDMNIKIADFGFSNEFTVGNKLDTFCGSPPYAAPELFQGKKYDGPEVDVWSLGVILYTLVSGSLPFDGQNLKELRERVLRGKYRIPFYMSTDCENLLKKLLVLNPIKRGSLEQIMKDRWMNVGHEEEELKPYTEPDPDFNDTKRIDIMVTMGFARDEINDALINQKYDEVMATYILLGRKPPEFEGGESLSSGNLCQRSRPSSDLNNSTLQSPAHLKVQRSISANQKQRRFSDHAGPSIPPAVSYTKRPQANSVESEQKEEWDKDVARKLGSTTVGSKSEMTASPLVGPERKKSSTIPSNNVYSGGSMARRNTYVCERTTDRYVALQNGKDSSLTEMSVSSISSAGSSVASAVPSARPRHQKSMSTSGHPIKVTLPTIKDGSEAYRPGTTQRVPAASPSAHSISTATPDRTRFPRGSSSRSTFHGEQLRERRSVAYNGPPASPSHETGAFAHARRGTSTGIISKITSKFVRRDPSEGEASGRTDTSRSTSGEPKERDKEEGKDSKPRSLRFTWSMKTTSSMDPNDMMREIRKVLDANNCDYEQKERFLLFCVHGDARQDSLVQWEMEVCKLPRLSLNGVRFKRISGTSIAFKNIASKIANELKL
Sequence of Mitogen-activated protein kinase 14 (Homo sapiens) (Q16539 whole entry): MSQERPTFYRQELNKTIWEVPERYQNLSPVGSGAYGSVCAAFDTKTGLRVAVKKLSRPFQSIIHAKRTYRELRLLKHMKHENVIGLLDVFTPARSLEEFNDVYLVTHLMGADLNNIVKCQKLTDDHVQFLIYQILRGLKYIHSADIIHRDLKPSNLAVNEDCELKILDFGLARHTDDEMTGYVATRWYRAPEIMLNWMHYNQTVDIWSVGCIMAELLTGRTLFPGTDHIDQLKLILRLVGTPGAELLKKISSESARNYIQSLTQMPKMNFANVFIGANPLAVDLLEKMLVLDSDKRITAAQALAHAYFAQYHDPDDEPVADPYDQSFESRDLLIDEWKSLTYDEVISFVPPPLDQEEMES
Sequence of RAF proto-oncogene serine/threonine-protein kinase (Homo sapiens) (P04049 whole entry): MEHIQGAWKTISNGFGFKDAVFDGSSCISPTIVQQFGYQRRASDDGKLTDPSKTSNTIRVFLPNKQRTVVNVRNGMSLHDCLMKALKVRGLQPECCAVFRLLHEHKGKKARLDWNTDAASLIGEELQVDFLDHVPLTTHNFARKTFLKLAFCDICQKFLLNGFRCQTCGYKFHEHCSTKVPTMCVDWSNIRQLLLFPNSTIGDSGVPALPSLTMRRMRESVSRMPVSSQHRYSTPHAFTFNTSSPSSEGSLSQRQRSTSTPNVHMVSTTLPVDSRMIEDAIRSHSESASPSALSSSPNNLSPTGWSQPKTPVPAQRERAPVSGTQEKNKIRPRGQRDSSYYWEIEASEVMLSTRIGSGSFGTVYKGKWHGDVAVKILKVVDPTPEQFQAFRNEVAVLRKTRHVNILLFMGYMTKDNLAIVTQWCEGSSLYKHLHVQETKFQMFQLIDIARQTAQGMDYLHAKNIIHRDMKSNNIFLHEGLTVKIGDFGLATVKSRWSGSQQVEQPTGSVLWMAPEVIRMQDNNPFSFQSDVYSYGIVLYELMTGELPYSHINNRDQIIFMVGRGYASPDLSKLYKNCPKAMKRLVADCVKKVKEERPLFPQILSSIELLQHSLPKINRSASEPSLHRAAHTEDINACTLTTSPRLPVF
Sequence of High affinity nerve growth factor receptor (Homo sapiens) (P04629 33-796 limits assumed): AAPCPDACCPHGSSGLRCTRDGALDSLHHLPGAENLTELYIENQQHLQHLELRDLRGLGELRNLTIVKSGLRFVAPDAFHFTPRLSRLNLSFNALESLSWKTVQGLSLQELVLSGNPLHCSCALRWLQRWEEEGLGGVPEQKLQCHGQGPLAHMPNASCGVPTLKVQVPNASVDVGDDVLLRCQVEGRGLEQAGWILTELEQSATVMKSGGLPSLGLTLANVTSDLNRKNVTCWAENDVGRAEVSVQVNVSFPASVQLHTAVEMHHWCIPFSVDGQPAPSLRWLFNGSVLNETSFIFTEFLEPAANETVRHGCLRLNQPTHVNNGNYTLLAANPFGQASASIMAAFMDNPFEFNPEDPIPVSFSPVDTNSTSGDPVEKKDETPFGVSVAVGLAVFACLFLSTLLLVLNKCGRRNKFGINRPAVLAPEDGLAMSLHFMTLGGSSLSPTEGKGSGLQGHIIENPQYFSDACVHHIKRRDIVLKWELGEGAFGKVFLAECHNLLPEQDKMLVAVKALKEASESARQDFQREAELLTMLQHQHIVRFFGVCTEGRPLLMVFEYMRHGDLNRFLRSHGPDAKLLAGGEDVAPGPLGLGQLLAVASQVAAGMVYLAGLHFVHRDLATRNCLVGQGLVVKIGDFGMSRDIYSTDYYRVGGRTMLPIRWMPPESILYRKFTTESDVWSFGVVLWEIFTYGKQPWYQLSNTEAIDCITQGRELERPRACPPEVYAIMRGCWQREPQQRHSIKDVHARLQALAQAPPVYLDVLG

For `COc1ccc(-c2nc3cc(-c4csc(C(=O)NCC(C)(C)C)c4)cnc3[nH]2)cc1`, the Activity in [1] was 94%; in the assay filed under Homo sapiens, 82%; in [2], 77%; in [3] it was 81%; in assay [4], 108%; in [5], 58%. In addition, the Activity in assay [6] turned out to be 104%; in assay [7], 81%; in assay [8], 93%.
`COc1ccc(-c2nc3cc(-c4csc(C(=O)NCCC(C)C)c4)cnc3[nH]2)cc1`: the Activity is 94% in assay [1]; 97% in the assay filed under Homo sapiens; 67% in assay [2]; 82% in [3]; 92% in assay [4]; 61% in assay [5]. For the same molecule, the Activity in [6] was determined as 100%; in [7], 97%; in assay [8] it was 111%.
With `COc1ccc(-c2nc3cc(-c4csc(C(=O)NCC(C)C)c4)cnc3[nH]2)cc1`, the Activity in [1] was 92%; in the assay filed under Homo sapiens it was 89%; in assay [2], 59%; in assay [3] it was 93%; in assay [4] it was 96%; in [5] it was 48%. The Activity in assay [6] amounted to 97%; in assay [7], 92%; in assay [8], 107%.

These data come from ChEMBL document CHEMBL3124838, “Discovery of 6-aryl-azabenzimidazoles that inhibit the TBK1/IKK-ε kinases” (Bioorg Med Chem Lett, 2014).
